Tests used:
Format in all cases: in vivo
[1] = test system: goosegrass (Eleusine indica); assay: Test E pre-/postemergence plant response; conditions: scale 0 to 100
Source text: (§1) Seeds of plant species selected from bermudagrass (Cynodon dactylon), Surinam grass (Brachiaria decumbens), large crabgrass (Digitaria sanguinalis), green foxtail (Setaria viridis), goosegrass (Eleusine indica), johnsongrass (Sorghum halepense), kochia (Kochia scoparia), pitted morningglory (Ipomoea lacunosa), purple nutsedge (Cyperus rotundus), common ragweed (Ambrosia elation), black mustard (Brassica nigra), guineagrass (Panicum maximum), dallisgrass (Paspalum dilatatum), barnyardgrass (Echinochloa crus-galli), southern (S.) sandbur (Cenchrus echinatus), common sowthistle (Sonchus oleraceous), prickly sida (Sida spinosa), Italian ryegrass (Lolium multiflorum), common purslane (Portulaca oleracea), broadleaf signalgrass (Brachiaria platyphylla), common groundsel (Senecio vulgaris), common chickweed (Stellaria media), Virginia (V.) dayflower (Commelina virginica), tropical (T.) spiderwort (Commelina benghalensis), annual bluegrass (Poa annua), naked crabgrass (Digitaria nuda), itchgrass (Rottboellia cochinchinensis), quackgrass (Elytrigia repens), Canada horseweed (Conyza canadensis), field bindweed (Convolvulus arvensis), spanishneedles (Bidens bipinnata), common mallow (Malva sylvestris) and Russian thistle (Salsola kali) were planted and treated preemergence with test chemicals formulated in a non-phytotoxic solvent mixture which included a surfactant. At the same time, plants selected from these weed species were treated with postemergence applications of some of the test chemicals formulated in the same manner. Plants ranged in height from 2 to 18 cm (1- to 4-leaf stage) for postemergence treatments.
(§2) Treated plants and controls were maintained in a greenhouse for 14 to 21 days, after which time all species were compared to controls and visually evaluated. Plant response ratings, summarized in Table E, are based on a scale of 0 to 100 where 0 is no effect and 100 is complete control. A dash (-) response means no test result.

[2] = test system: bermudagrass (Cynodon dactylon); assay: Test E pre-/postemergence plant response; conditions: scale 0 to 100
Source text: as §1, §2

[3] = test system: black mustard (Brassica nigra); assay: Test E pre-/postemergence plant response; conditions: scale 0 to 100
Source text: as §1, §2

[4] = test system: large crabgrass (Digitaria sanguinalis); assay: Test E pre-/postemergence plant response; conditions: scale 0 to 100
Source text: as §1, §2

[5] = test system: quackgrass (Elytrigia repens); assay: Test E pre-/postemergence plant response; conditions: scale 0 to 100
Source text: as §1, §2

[6] = test system: pitted morningglory (Ipomoea lacunosa); assay: Test E pre-/postemergence plant response; conditions: scale 0 to 100
Source text: as §1, §2

[7] = test system: broadleaf signalgrass (Brachiaria platyphylla); assay: Test E pre-/postemergence plant response; conditions: scale 0 to 100
Source text: as §1, §2

[8] = test system: spring wheat (Triticum aestivum); assay: Test C pre-/postemergence plant response; conditions: Preemergence
How it was run: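 Scores (0 = no effect, 100 = complete control) are visual assessments made against control plants 15–25 days post-treatment in a controlled environment. Applications were preemergence and postemergence, with postemergence plants between 1- and 4-leaf stage.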

[9] = 8 g ai/ha, scale 0 to 100 (0 no effect, 100 complete control)
[10] = 16 g ai/ha, scale 0 to 100 (0 no effect, 100 complete control)
[11] = 31 g ai/ha, scale 0 to 100 (0 no effect, 100 complete control)
[12] = 62 g ai/ha, scale 0 to 100, 0 no effect, 100 complete control

Cc1cc(-c2ccc(Cl)cc2)nn1-c1c(OC(=O)Oc2ccccc2)cnn(C)c1=O [Compound 54]
Plant response rating, Goosegrass ([1]; 8 g ai/ha, Postemergence): 0 | Plant response rating, Goosegrass ([1]; Postemergence, 16 g ai/ha): 0 | Plant response rating, Goosegrass ([1]; Postemergence, 31 g ai/ha): 50 | Plant response rating, Goosegrass ([1]; Postemergence, 62 g ai/ha): 95 | Plant response rating, Bermudagrass ([2]; Postemergence, 8 g ai/ha): 10 | Plant response rating, Bermudagrass ([2]; Postemergence, 16 g ai/ha): 20 | Plant response rating, Bermudagrass ([2]; Postemergence, 31 g ai/ha): 40 | Plant response rating, Bermudagrass ([2]; Postemergence, 62 g ai/ha): 80 | Plant response rating, Mustard, Black ([3]; Postemergence, 8 g ai/ha): 0 | Plant response rating, Mustard, Black ([3]; Postemergence, 16 g ai/ha): 0 | Plant response rating, Mustard, Black ([3]; Postemergence, 31 g ai/ha): 0 | Plant response rating, Mustard, Black ([3]; Postemergence, 62 g ai/ha): 0 | Plant response rating, Crabgrass, Large ([4]; 8 g ai/ha, Postemergence): 25 | Plant response rating, Crabgrass, Large ([4]; Postemergence, 16 g ai/ha): 80 | Plant response rating, Crabgrass, Large ([4]; Postemergence, 31 g ai/ha): 95 | Plant response rating, Crabgrass, Large ([4]; Postemergence, 62 g ai/ha): 100 | Plant response rating, Quackgrass ([5]; 8 g ai/ha, Postemergence): 0 | Plant response rating, Quackgrass ([5]; Postemergence, 16 g ai/ha): 0 | Plant response rating, Quackgrass ([5]; Postemergence, 31 g ai/ha): 0 | Plant response rating, Quackgrass ([5]; Postemergence, 62 g ai/ha): 35 | Plant response rating, Morningglory ([6]; 8 g ai/ha, Postemergence): 0 | Plant response rating, Morningglory ([6]; Postemergence, 16 g ai/ha): 0 | Plant response rating, Morningglory ([6]; Postemergence, 31 g ai/ha): 0 | Plant response rating, Morningglory ([6]; Postemergence, 62 g ai/ha): 0 | Plant response rating, Signalgrass ([7]; 8 g ai/ha, Postemergence): 75 | Plant response rating, Signalgrass ([7]; Postemergence, 16 g ai/ha): 90 | Plant response rating, Signalgrass ([7]; Postemergence, 31 g ai/ha): 98 | Plant response rating, Signalgrass ([7]; Postemergence, 62 g ai/ha): 100 | Plant response rating, Wheat, Spring [8, 9]: 0 | Plant response rating, Wheat, Spring [8, 10]: 25 | Plant response rating, Wheat, Spring [8, 11]: 65 | Plant response rating, Wheat, Spring [8, 12]: 98

CCc1cc(-c2ccc(C(F)(F)F)cc2)nn1-c1c(OC(=O)OC(C)C)cnn(C)c1=O [Compound 12]
Plant response rating, Goosegrass ([1]; 4 g ai/ha, Postemergence): 10 | Plant response rating, Goosegrass ([1]; 8 g ai/ha, Preemergence): 65 | Plant response rating, Goosegrass ([1]; 31 g ai/ha, Preemergence): 75 | Plant response rating, Goosegrass ([1]; Postemergence, 8 g ai/ha): 30 | Plant response rating, Goosegrass ([1]; Postemergence, 31 g ai/ha): 90 | Plant response rating, Goosegrass ([1]; Preemergence, 4 g ai/ha): 25 | Plant response rating, Bermudagrass ([2]; 4 g ai/ha, Postemergence): 15 | Plant response rating, Bermudagrass ([2]; 8 g ai/ha, Preemergence): 75 | Plant response rating, Bermudagrass ([2]; 31 g ai/ha, Preemergence): 95 | Plant response rating, Bermudagrass ([2]; Postemergence, 8 g ai/ha): 70 | Plant response rating, Bermudagrass ([2]; Postemergence, 31 g ai/ha): 95 | Plant response rating, Bermudagrass ([2]; Preemergence, 4 g ai/ha): 35 | Plant response rating, Mustard, Black ([3]; 4 g ai/ha, Postemergence): 0 | Plant response rating, Mustard, Black ([3]; 8 g ai/ha, Preemergence): 0 | Plant response rating, Mustard, Black ([3]; 31 g ai/ha, Preemergence): 0 | Plant response rating, Mustard, Black ([3]; Postemergence, 8 g ai/ha): 0 | Plant response rating, Mustard, Black ([3]; Postemergence, 31 g ai/ha): 0 | Plant response rating, Mustard, Black ([3]; Preemergence, 4 g ai/ha): 0 | Plant response rating, Crabgrass, Large ([4]; 4 g ai/ha, Postemergence): 0 | Plant response rating, Crabgrass, Large ([4]; 8 g ai/ha, Preemergence): 35 | Plant response rating, Crabgrass, Large ([4]; 31 g ai/ha, Preemergence): 98 | Plant response rating, Crabgrass, Large ([4]; Postemergence, 8 g ai/ha): 65 | Plant response rating, Crabgrass, Large ([4]; Postemergence, 31 g ai/ha): 95 | Plant response rating, Crabgrass, Large ([4]; Preemergence, 4 g ai/ha): 0 | Plant response rating, Quackgrass ([5]; 4 g ai/ha, Postemergence): 20 | Plant response rating, Quackgrass ([5]; 31 g ai/ha, Preemergence): 80 | Plant response rating, Quackgrass ([5]; Postemergence, 8 g ai/ha): 30 | Plant response rating, Quackgrass ([5]; Postemergence, 31 g ai/ha): 95 | Plant response rating, Quackgrass ([5]; Preemergence, 4 g ai/ha): 0 | Plant response rating, Morningglory ([6]; 4 g ai/ha, Postemergence): 0 | Plant response rating, Morningglory ([6]; 31 g ai/ha, Preemergence): 0 | Plant response rating, Morningglory ([6]; Postemergence, 8 g ai/ha): 0 | Plant response rating, Morningglory ([6]; Postemergence, 31 g ai/ha): 0 | Plant response rating, Morningglory ([6]; Preemergence, 4 g ai/ha): 0 | Plant response rating, Signalgrass ([7]; 4 g ai/ha, Postemergence): 65 | Plant response rating, Signalgrass ([7]; 31 g ai/ha, Preemergence): 95 | Plant response rating, Signalgrass ([7]; Postemergence, 8 g ai/ha): 80 | Plant response rating, Signalgrass ([7]; Postemergence, 31 g ai/ha): 100 | Plant response rating, Signalgrass ([7]; Preemergence, 4 g ai/ha): 0

Cc1cc(-c2ccc(Cl)cc2)nn1-c1c(OC(=O)c2cccc(Cl)c2)cnn(C)c1=O [Compound 32]
Plant response rating, Goosegrass ([1]; Postemergence, 8 g ai/ha): 35 | Plant response rating, Goosegrass ([1]; Postemergence, 16 g ai/ha): 35 | Plant response rating, Goosegrass ([1]; Postemergence, 31 g ai/ha): 60 | Plant response rating, Goosegrass ([1]; Postemergence, 62 g ai/ha): 80 | Plant response rating, Bermudagrass ([2]; Postemergence, 8 g ai/ha): 5 | Plant response rating, Bermudagrass ([2]; Postemergence, 16 g ai/ha): 20 | Plant response rating, Bermudagrass ([2]; Postemergence, 31 g ai/ha): 40 | Plant response rating, Bermudagrass ([2]; Postemergence, 62 g ai/ha): 75 | Plant response rating, Mustard, Black ([3]; Postemergence, 8 g ai/ha): 0 | Plant response rating, Mustard, Black ([3]; Postemergence, 16 g ai/ha): 0 | Plant response rating, Mustard, Black ([3]; Postemergence, 31 g ai/ha): 0 | Plant response rating, Mustard, Black ([3]; Postemergence, 62 g ai/ha): 0 | Plant response rating, Crabgrass, Large ([4]; Postemergence, 8 g ai/ha): 35 | Plant response rating, Crabgrass, Large ([4]; Postemergence, 16 g ai/ha): 75 | Plant response rating, Crabgrass, Large ([4]; Postemergence, 31 g ai/ha): 75 | Plant response rating, Crabgrass, Large ([4]; Postemergence, 62 g ai/ha): 80 | Plant response rating, Quackgrass ([5]; Postemergence, 8 g ai/ha): 0 | Plant response rating, Quackgrass ([5]; Postemergence, 16 g ai/ha): 0 | Plant response rating, Quackgrass ([5]; Postemergence, 31 g ai/ha): 0 | Plant response rating, Quackgrass ([5]; Postemergence, 62 g ai/ha): 0 | Plant response rating, Morningglory ([6]; Postemergence, 8 g ai/ha): 0 | Plant response rating, Morningglory ([6]; Postemergence, 16 g ai/ha): 35 | Plant response rating, Morningglory ([6]; Postemergence, 31 g ai/ha): 35 | Plant response rating, Morningglory ([6]; Postemergence, 62 g ai/ha): 50 | Plant response rating, Signalgrass ([7]; Postemergence, 8 g ai/ha): 80 | Plant response rating, Signalgrass ([7]; Postemergence, 16 g ai/ha): 80 | Plant response rating, Signalgrass ([7]; Postemergence, 31 g ai/ha): 95 | Plant response rating, Signalgrass ([7]; Postemergence, 62 g ai/ha): 100 | Plant response rating, Wheat, Spring [8, 9]: 0 | Plant response rating, Wheat, Spring [8, 10]: 25 | Plant response rating, Wheat, Spring [8, 11]: 60 | Plant response rating, Wheat, Spring [8, 12]: 98
